Data taken from PubChem BioAssay (NCI).
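Where inhibition never reached the appropriate level, the endpoint shown equals the highest concentration tested. Otherwise, values were interpolated linearly from a five-concentration, 48-hour dose response in 96-well plates. TGI: concentration producing complete growth inhibition.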

Experiments:
Assay in all cases: NCI anticancer screen, dose series, 48 h
786-0 renal = tested on: 786-0 renal
A498 renal = tested on: A498 renal
A549 NSCLC = tested on: A549 NSCLC
ACHN renal = tested on: ACHN renal
CAKI-1 renal = tested on: CAKI-1 renal
COLO 205 colon = tested on: COLO 205 colon
DLD-1 colon = tested on: DLD-1 colon
DMS 114 small cell lung = tested on: DMS 114 small cell lung
DMS 273 small cell lung = tested on: DMS 273 small cell lung
EKVX NSCLC = tested on: EKVX NSCLC
HCC-2998 colon = tested on: HCC-2998 colon
HCT-116 colon = tested on: HCT-116 colon
HCT-15 colon = tested on: HCT-15 colon
HL-60(TB) leukemia = tested on: HL-60(TB) leukemia
HOP-18 NSCLC = tested on: HOP-18 NSCLC
HOP-62 NSCLC = tested on: HOP-62 NSCLC
HT29 colon = tested on: HT29 colon
IGROV1 ovarian = tested on: IGROV1 ovarian
K-562 leukemia = tested on: K-562 leukemia
KM12 colon = tested on: KM12 colon
KM20L2 colon = tested on: KM20L2 colon
LOX IMVI melanoma = tested on: LOX IMVI melanoma
LXFL 529 NSCLC = tested on: LXFL 529 NSCLC
M14 melanoma = tested on: M14 melanoma
M19-MEL melanoma = tested on: M19-MEL melanoma
MALME-3M melanoma = tested on: MALME-3M melanoma
MOLT-4 leukemia = tested on: MOLT-4 leukemia
NCI-H23 lung = tested on: NCI-H23 lung
NCI-H460 lung = tested on: NCI-H460 lung
NCI-H522 lung = tested on: NCI-H522 lung
OVCAR-3 ovarian = tested on: OVCAR-3 ovarian
OVCAR-4 ovarian = tested on: OVCAR-4 ovarian
OVCAR-5 ovarian = tested on: OVCAR-5 ovarian
OVCAR-8 ovarian = tested on: OVCAR-8 ovarian
RXF 393 renal = tested on: RXF 393 renal
RXF-631 renal = tested on: RXF-631 renal
SF-268 CNS = tested on: SF-268 CNS
SF-295 CNS = tested on: SF-295 CNS
SF-539 CNS = tested on: SF-539 CNS
SK-MEL-2 melanoma = tested on: SK-MEL-2 melanoma
SK-MEL-28 melanoma = tested on: SK-MEL-28 melanoma
SK-MEL-5 melanoma = tested on: SK-MEL-5 melanoma
SK-OV-3 ovarian = tested on: SK-OV-3 ovarian
SN12C renal = tested on: SN12C renal
SNB-19 CNS = tested on: SNB-19 CNS
SNB-75 CNS = tested on: SNB-75 CNS
SW-620 colon = tested on: SW-620 colon
TK-10 renal = tested on: TK-10 renal
U251 CNS = tested on: U251 CNS
UACC-257 melanoma = tested on: UACC-257 melanoma
UACC-62 melanoma = tested on: UACC-62 melanoma
UO-31 renal = tested on: UO-31 renal
XF 498 CNS = tested on: XF 498 CNS
CCRF-CEM leukemia = tested on: CCRF-CEM leukemia
HOP-92 NSCLC = tested on: HOP-92 NSCLC
NCI-H226 lung = tested on: NCI-H226 lung
SNB-78 CNS = tested on: SNB-78 CNS
RPMI-8226 leukemia = tested on: RPMI-8226 leukemia
SR leukemia = tested on: SR leukemia

Cc1ccc(SSCCCS(=O)O)cc1
TGI (786-0 renal): > 100 µM
TGI (A498 renal): 69.9 µM
TGI (A549 NSCLC): > 100 µM
TGI (ACHN renal): > 100 µM
TGI (CAKI-1 renal): > 100 µM
TGI (COLO 205 colon): 52.9 µM
TGI (DLD-1 colon): > 100 µM
TGI (DMS 114 small cell lung): 37.1 µM
TGI (DMS 273 small cell lung): 79 µM
TGI (EKVX NSCLC): 88.5 µM
TGI (HCC-2998 colon): > 100 µM
TGI (HCT-116 colon): > 100 µM
TGI (HCT-15 colon): > 100 µM
TGI (HL-60(TB) leukemia): 6.49 µM
TGI (HOP-18 NSCLC): > 100 µM
TGI (HOP-62 NSCLC): 78.4 µM
TGI (HT29 colon): > 100 µM
TGI (IGROV1 ovarian): 27.4 µM
TGI (K-562 leukemia): > 100 µM
TGI (KM12 colon): > 100 µM
TGI (KM20L2 colon): > 100 µM
TGI (LOX IMVI melanoma): 32.3 µM
TGI (LXFL 529 NSCLC): > 100 µM
TGI (M14 melanoma): 96.8 µM
TGI (M19-MEL melanoma): > 100 µM
TGI (MALME-3M melanoma): > 100 µM
TGI (MOLT-4 leukemia): 50.6 µM
TGI (NCI-H23 lung): > 100 µM
TGI (NCI-H460 lung): > 100 µM
TGI (NCI-H522 lung): 37.5 µM
TGI (OVCAR-3 ovarian): > 100 µM
TGI (OVCAR-4 ovarian): > 100 µM
TGI (OVCAR-5 ovarian): > 100 µM
TGI (OVCAR-8 ovarian): 50 µM
TGI (RXF 393 renal): 72.3 µM
TGI (RXF-631 renal): > 100 µM
TGI (SF-268 CNS): 48.2 µM
TGI (SF-295 CNS): > 100 µM
TGI (SF-539 CNS): 40.6 µM
TGI (SK-MEL-2 melanoma): > 100 µM
TGI (SK-MEL-28 melanoma): > 100 µM
TGI (SK-MEL-5 melanoma): > 100 µM
TGI (SK-OV-3 ovarian): 85.9 µM
TGI (SN12C renal): > 100 µM
TGI (SNB-19 CNS): > 100 µM
TGI (SNB-75 CNS): 79.5 µM
TGI (SW-620 colon): > 100 µM
TGI (TK-10 renal): > 100 µM
TGI (U251 CNS): 41.2 µM
TGI (UACC-257 melanoma): > 100 µM
TGI (UACC-62 melanoma): > 100 µM
TGI (UO-31 renal): > 100 µM
TGI (XF 498 CNS): > 100 µM

CCCCCCCCCCCCCCCCOC(=O)C(C(=O)OCCCCCCCCCCCCCCCC)[N+](C)(C)CCOC(C)=O
TGI (786-0 renal): 32.7 µM
TGI (A498 renal): 57.5 µM
TGI (A549 NSCLC): 42.6 µM
TGI (ACHN renal): 34.9 µM
TGI (CAKI-1 renal): 30.9 µM
TGI (CCRF-CEM leukemia): 28.6 µM
TGI (COLO 205 colon): 36 µM
TGI (DLD-1 colon): 31.3 µM
TGI (DMS 114 small cell lung): 41.8 µM
TGI (DMS 273 small cell lung): 25 µM
TGI (EKVX NSCLC): 43.7 µM
TGI (HCC-2998 colon): 30.7 µM
TGI (HCT-116 colon): 33.1 µM
TGI (HCT-15 colon): 46.1 µM
TGI (HL-60(TB) leukemia): 6.12 µM
TGI (HOP-18 NSCLC): 30.3 µM
TGI (HOP-62 NSCLC): 25.8 µM
TGI (HOP-92 NSCLC): 18.5 µM
TGI (HT29 colon): 25.9 µM
TGI (IGROV1 ovarian): 13.7 µM
TGI (K-562 leukemia): 41 µM
TGI (KM12 colon): 33.8 µM
TGI (KM20L2 colon): 50 µM
TGI (LOX IMVI melanoma): 44.8 µM
TGI (LXFL 529 NSCLC): 37.2 µM
TGI (M14 melanoma): 38.5 µM
TGI (M19-MEL melanoma): 30.4 µM
TGI (MALME-3M melanoma): 41.2 µM
TGI (NCI-H226 lung): 42.1 µM
TGI (NCI-H23 lung): 30.3 µM
TGI (NCI-H460 lung): 80.6 µM
TGI (NCI-H522 lung): 23.3 µM
TGI (OVCAR-3 ovarian): 32.6 µM
TGI (OVCAR-4 ovarian): 32.4 µM
TGI (OVCAR-5 ovarian): 35.1 µM
TGI (OVCAR-8 ovarian): 37.3 µM
TGI (RXF 393 renal): 8.98 µM
TGI (RXF-631 renal): 30.5 µM
TGI (SF-268 CNS): 44.1 µM
TGI (SF-295 CNS): 35.4 µM
TGI (SK-MEL-2 melanoma): 36.8 µM
TGI (SK-MEL-28 melanoma): 40.8 µM
TGI (SK-MEL-5 melanoma): 35.1 µM
TGI (SK-OV-3 ovarian): 34.8 µM
TGI (SN12C renal): 35.3 µM
TGI (SNB-19 CNS): 43.8 µM
TGI (SNB-75 CNS): 35.6 µM
TGI (SNB-78 CNS): 45.7 µM
TGI (SW-620 colon): 52.4 µM
TGI (TK-10 renal): 26.5 µM
TGI (U251 CNS): 27 µM
TGI (UACC-257 melanoma): 35 µM
TGI (UACC-62 melanoma): 45.7 µM
TGI (UO-31 renal): 34.2 µM

CCOC(=O)CC(=O)ON(C)C(=O)Cc1ccccc1
TGI (786-0 renal): > 100 µM
TGI (A498 renal): > 100 µM
TGI (A549 NSCLC): > 100 µM
TGI (ACHN renal): > 100 µM
TGI (CAKI-1 renal): > 100 µM
TGI (CCRF-CEM leukemia): > 100 µM
TGI (COLO 205 colon): > 100 µM
TGI (DLD-1 colon): > 100 µM
TGI (DMS 114 small cell lung): > 100 µM
TGI (EKVX NSCLC): > 100 µM
TGI (HCT-116 colon): > 100 µM
TGI (HCT-15 colon): > 100 µM
TGI (HL-60(TB) leukemia): > 100 µM
TGI (HOP-62 NSCLC): > 100 µM
TGI (HT29 colon): > 100 µM
TGI (IGROV1 ovarian): > 100 µM
TGI (KM12 colon): > 100 µM
TGI (KM20L2 colon): > 100 µM
TGI (LOX IMVI melanoma): > 100 µM
TGI (LXFL 529 NSCLC): > 100 µM
TGI (M14 melanoma): > 100 µM
TGI (M19-MEL melanoma): > 100 µM
TGI (MALME-3M melanoma): > 100 µM
TGI (NCI-H226 lung): > 100 µM
TGI (NCI-H23 lung): > 100 µM
TGI (NCI-H460 lung): > 100 µM
TGI (NCI-H522 lung): > 100 µM
TGI (OVCAR-3 ovarian): > 100 µM
TGI (OVCAR-4 ovarian): > 100 µM
TGI (OVCAR-5 ovarian): > 100 µM
TGI (OVCAR-8 ovarian): > 100 µM
TGI (RPMI-8226 leukemia): > 100 µM
TGI (RXF-631 renal): > 100 µM
TGI (SF-268 CNS): > 100 µM
TGI (SF-295 CNS): > 100 µM
TGI (SF-539 CNS): > 100 µM
TGI (SK-MEL-2 melanoma): > 100 µM
TGI (SK-MEL-5 melanoma): > 100 µM
TGI (SK-OV-3 ovarian): > 100 µM
TGI (SN12C renal): > 100 µM
TGI (SNB-19 CNS): > 100 µM
TGI (SNB-78 CNS): > 100 µM
TGI (SR leukemia): > 100 µM
TGI (SW-620 colon): > 100 µM
TGI (U251 CNS): > 100 µM
TGI (UACC-257 melanoma): > 100 µM
TGI (UACC-62 melanoma): > 100 µM
TGI (UO-31 renal): > 100 µM
